Data reported in PubChem BioAssay (NCI).
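Abbreviation: GI50, concentration required for 50% inhibition of growth. TGI: concentration producing complete growth inhibition.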

Key:
Assay in all cases: NCI tumour cell line growth inhibition, 384-well format
[1] = tested on: 786-0 renal
[2] = tested on: A498 renal
[3] = tested on: A549 NSCLC
[4] = tested on: ACHN renal
[5] = tested on: BT-549 breast
[6] = tested on: CAKI-1 renal
[7] = tested on: COLO 205 colon
[8] = tested on: DU-145 prostate
[9] = tested on: EKVX NSCLC
[10] = tested on: HCC-2998 colon
[11] = tested on: HCT-116 colon
[12] = tested on: HCT-15 colon
[13] = tested on: HL-60(TB) leukemia
[14] = tested on: HOP-62 NSCLC
[15] = tested on: HOP-92 NSCLC
[16] = tested on: HS 578T breast
[17] = tested on: HT29 colon
[18] = tested on: IGROV1 ovarian
[19] = tested on: KM12 colon
[20] = tested on: LOX IMVI melanoma
[21] = tested on: M14 melanoma
[22] = tested on: MALME-3M melanoma
[23] = tested on: MCF7 breast
[24] = tested on: MDA-MB-231 breast
[25] = tested on: MDA-MB-435 melanoma
[26] = tested on: MDA-MB-468 breast
[27] = tested on: MOLT-4 leukemia
[28] = tested on: NCI-H226 lung
[29] = tested on: NCI-H23 lung
[30] = tested on: NCI-H322M lung
[31] = tested on: NCI-H460 NSCLC
[32] = tested on: NCI-H522 lung
[33] = tested on: NCI/ADR-RES ovarian
[34] = tested on: OVCAR-3 ovarian
[35] = tested on: OVCAR-4 ovarian
[36] = tested on: OVCAR-5 ovarian
[37] = tested on: OVCAR-8 ovarian
[38] = tested on: PC-3 prostate
[39] = tested on: RPMI-8226 leukemia
[40] = tested on: RXF 393 renal
[41] = tested on: SF-295 CNS
[42] = tested on: SK-MEL-5 melanoma
[43] = tested on: SK-OV-3 ovarian
[44] = tested on: SN12C renal

`Cc1cn(-c2cc(NC(=O)c3ccc(C)c(Nc4nccc(-c5cccnc5)n4)c3)cc(C(F)(F)F)c2)cn1` showed a GI50 [1] of 1640 nM, a TGI [1] of 3030 nM and a GI50 [2] of 1980 nM. For the same molecule, the TGI [2] was 3940 nM, the GI50 [3] was 1720 nM and the TGI [3] was 3160 nM. The GI50 [4] was 1640 nM, the TGI [4] was 3470 nM and the GI50 [5] was 1990 nM. It also gave a TGI [5] of 3430 nM, a GI50 [6] of 3040 nM and a TGI [6] of 10800 nM. The GI50 [7] was 1280 nM, the TGI [7] was 2980 nM and the GI50 [8] was 2800 nM. The TGI [8] was 7600 nM, the GI50 [9] was 1880 nM and the TGI [9] was 3780 nM. For the same molecule, the GI50 [10] was 2240 nM, the TGI [10] was 5360 nM and the GI50 [11] was 1650 nM. For the same molecule, the TGI [11] was 3750 nM, the GI50 [12] was 3600 nM and the TGI [12] was 14200 nM. The GI50 [13] was 1460 nM, the TGI [13] was 7920 nM and the GI50 [14] was 2210 nM. It also gave a TGI [14] of 5730 nM, a GI50 [15] of 1660 nM and a TGI [15] of 3600 nM. For the same molecule, the GI50 [16] was 1550 nM, the TGI [16] was 2900 nM and the GI50 [17] was 1660 nM. The TGI [17] was 3780 nM, the GI50 [18] was 1870 nM and the TGI [18] was 3610 nM. For the same molecule, the GI50 [19] was 2500 nM, the TGI [19] was 6870 nM and the GI50 [20] was 2200 nM. It also gave a TGI [20] of 9930 nM, a GI50 [21] of 1190 nM and a TGI [21] of 2530 nM. It also gave a GI50 [22] of 447 nM, a TGI [22] of 1620 nM and a GI50 [23] of 1880 nM. The TGI [23] was 3670 nM, the GI50 [24] was 1300 nM and the TGI [24] was 3650 nM. For the same molecule, the GI50 [25] was 1720 nM, the TGI [25] was 3490 nM and the GI50 [26] was 1770 nM. It also gave a TGI [26] of 3310 nM, a GI50 [27] of 1890 nM and a TGI [27] greater than 100000 nM. The GI50 [28] was 1700 nM, the TGI [28] was 3680 nM and the GI50 [29] was 2240 nM. The TGI [29] was 7480 nM, the GI50 [30] was 2290 nM and the TGI [30] was 4630 nM. For the same molecule, the GI50 [31] was 2670 nM, the TGI [31] was 9420 nM and the GI50 [32] was 1820 nM. It also gave a TGI [32] of 4480 nM, a GI50 [33] of 1580 nM and a TGI [33] of 3740 nM. The GI50 [34] was 1730 nM, the TGI [34] was 3360 nM and the GI50 [35] was 3160 nM. It also gave a TGI [35] of 7250 nM, a GI50 [36] of 1910 nM and a TGI [36] of 5090 nM. The GI50 [37] was 1590 nM, the TGI [37] was 3320 nM and the GI50 [38] was 1710 nM. The TGI [38] was 3130 nM, the GI50 [39] was 1460 nM and the TGI [39] was 5450 nM. The GI50 [40] was 1470 nM, the TGI [40] was 2840 nM and the GI50 [41] was 1740 nM. The TGI [41] was 3390 nM, the GI50 [42] was 1280 nM and the TGI [42] was 2600 nM. For the same molecule, the GI50 [43] was 1830 nM, the TGI [43] was 3300 nM and the GI50 [44] was 3610 nM. It also gave a TGI [44] greater than 100000 nM.
